From patent US11498920B2, “4-(1H-imidazol-5-yl)-1H-pyrrolo[2, 3-b] pyridines for use in the treatment of leukaemias, lymphomas and solid tumors” (MASARYKOVA UNIVERZITA, priority 2018, dated 2022)
“Also recorded” adds a separate entry of the source.

Columns and labels:
primary CLL cells [1] = assay: Cytotoxicity, TMRE flow cytometry viability, primary CLL cells (Example II.1); type: cell-based; conditions: Homo sapiens, CLL cell, 6 hours, TMRE positive cells normalized to control, ratio to PF670462, <1 = higher cytotoxicity than PF670462, read-out: Viability of cells, Compound of formula I (100 μM), relative to PF670462 (100 μM), CLL primary cells
[2] = tested on: Maver-1 cells (mantle cell lymphoma); assay: Cytotoxicity, TMRE flow cytometry viability, Maver-1 cells (Example II.1); type: cell-based; conditions: Homo sapiens, Maver1, 24 hours, TMRE positive cells normalized to control, ratio to PF670462, <1 = higher cytotoxicity than PF670462, read-out: Viability of cells, Compound of formula I (100 μM), relative to PF670462 (100 μM), Maver-1 cells (mantle cell lymphoma)
A375 = assay: Cytotoxicity on panel of cell lines, TMRE viability (Example II.2); type: cell-based; conditions: Homo sapiens, A-375, 24 hours, mean, control = 1, read-out: cell viability relative to control, A375 (melanoma)
Description: (§1) The leukemia and lymphoma-derived cell lines [MEC-1 cell line (derived from chronic lymphocytic leukemia—CLL), Nalm-16 (acute lymphocytic leukemia—ALL), K562 (chronic myeloid leukemia—CML), HL-60 (acute myeloid leukemia—AML), Maver-1 and Mino (mantle cell lymphoma—MCL), BL-41 (Burkitt lymphoma—BL), WSU-NHL (follicular lymphoma—FL), SUDHL (diffuse large B-cell lymphoma—DLBCL)], primary CLL cells and nonmalignant control primary cells were cultured in suspension in flasks under the following conditions: RPMI 1640 medium (Hyclone) supplemented with 10% fetal bovine serum (FBS, Gibco) and 1% penicillin/streptomycin (Life Technologies), 37° C., 5% CO2 and 95% relative humidity, with optimal culture cell density 5×10^6 cells/mL in case of primary cells and 0.5-1×10^6 cells/mL in case of cell lines. The adherent cell lines [A375 (derived from malignant melanoma), MDA-MB-231 and MCF-7 (breast cancer), MIA-PA-CA and PANC1 (pancreatic cancer), PC3 (prostate cancer), OVCAR4 (ovarian cancer) and HEPG2 (hepatocellular carcinoma)] were cultured on plates under the same conditions using RPMI1640 or DMEM medium (Gibco) according to instructions provided by the distributor (DSMZ/ATCC).
(§2) The tested cell lines were incubated with inhibitors at 30 μM concentration or corresponding amount of solvent (DMSO, Sigma Aldrich) in standard culture conditions, seeded as 10^5 cells/500 μl per well in a 24-well plate. Experiments were performed in technical duplicates and 2-3 biological repetitions per cell line. Viability of cells was assessed after 24 hours.
(§3) Relative values are presented as a mean value, showing ratio to the effect of control. Relative value <1=lower viability than control condition.

BL-41 = assay: as above; type: cell-based; conditions: Homo sapiens, 24 hours, mean, control = 1, read-out: cell viability relative to control, BL-41 (BL)
Description: as §1, §2, §3

HEPG2 = assay: as above; type: cell-based; conditions: Homo sapiens, 24 hours, mean, control = 1, read-out: cell viability relative to control, HEPG2 (hepatocellular carcinoma)
Description: as §1, §2, §3

HL60 = assay: as above; type: cell-based; conditions: Homo sapiens, HL-60, 24 hours, mean, control = 1, read-out: cell viability relative to control, HL60 (AML)
Description: as §1, §2, §3

MCF-7 = assay: as above; type: cell-based; conditions: Homo sapiens, MCF7, 24 hours, mean, control = 1, read-out: cell viability relative to control, MCF-7 (breast cancer)
Description: as §1, §2, §3

MDA-MB-231 = assay: as above; type: cell-based; conditions: Homo sapiens, 24 hours, mean, control = 1, read-out: cell viability relative to control, MDA-MB-231 (breast cancer)
Description: as §1, §2, §3

MEC-1 = assay: as above; type: cell-based; conditions: Homo sapiens, MEC1, 24 hours, mean, control = 1, read-out: cell viability relative to control, MEC-1 (CLL)
Description: as §1, §2, §3

MIA-PA-CA = assay: as above; type: cell-based; conditions: Homo sapiens, MIA PaCa-2, 24 hours, mean, control = 1, read-out: cell viability relative to control, MIA-PA-CA (pancreatic cancer)
Description: as §1, §2, §3

Maver1 = assay: as above; type: cell-based; conditions: Homo sapiens, 24 hours, mean, control = 1, read-out: cell viability relative to control, Maver1 (MCL)
Description: as §1, §2, §3

Mino = assay: as above; type: cell-based; conditions: Homo sapiens, 24 hours, mean, control = 1, read-out: cell viability relative to control, Mino (MCL)
Description: as §1, §2, §3

OVCAR4 = assay: as above; type: cell-based; conditions: Homo sapiens, OVCAR-4, 24 hours, mean, control = 1, read-out: cell viability relative to control, OVCAR4 (ovarian cancer)
Description: as §1, §2, §3

PANC1 = assay: as above; type: cell-based; conditions: Homo sapiens, PANC-1, 24 hours, mean, control = 1, read-out: cell viability relative to control, PANC1 (pancreatic cancer)
Description: as §1, §2, §3

PC3 = assay: as above; type: cell-based; conditions: Homo sapiens, PC-3, 24 hours, mean, control = 1, read-out: cell viability relative to control, PC3 (prostate cancer)
Description: as §1, §2, §3

SUDHL = assay: as above; type: cell-based; conditions: 24 hours, mean, control = 1, read-out: cell viability relative to control, SUDHL (DLBCL)
Description: as §1, §2, §3

WSU-NHL = assay: as above; type: cell-based; conditions: Homo sapiens, 24 hours, mean, control = 1, read-out: cell viability relative to control, WSU-NHL (FL)
Description: as §1, §2, §3

primary CLL = assay: as above; type: cell-based; conditions: Homo sapiens, 24 hours, mean, control = 1, read-out: cell viability relative to control, primary CLL
Description: as §1, §2, §3

K562 = assay: as above; type: cell-based; conditions: Homo sapiens, 24 hours, mean, control = 1, read-out: cell viability relative to control, K562 (CML)
Description: as §1, §2, §3

Nalm16 = assay: as above; type: cell-based; conditions: 24 hours, mean, control = 1, read-out: cell viability relative to control, Nalm16 (ALL)
Description: as §1, §2, §3

[3] = Specificity of cytotoxic activity, TMRE viability, primary nonmalignant control cells (Example II.4); type: cell-based; conditions: human, N = 4, read-out: Viability - mean % of control, Primary healthy cells
primary CLL cells [4] = assay: Induction of apoptosis, western blotting of cleaved PARP in primary CLL cells; type: cell-based, human; conditions: 10 μM, overnight, listed as preparatory example 3
primary CLL cells [5] = assay: Specificity of cytotoxic activity, TMRE viability, primary CLL cells (Example II.4); conditions: for selective toxicity towards cancer cells vs nonmalignant controls (FIG. 4, Table 3): primary CLL cells vs healthy cells

Row | Compound | viability at 100 µM (primary CLL cells [1]) | viability at 100 µM [2] | viability at 30 µM (A375) | viability at 30 µM (BL-41) | viability at 30 µM (HEPG2) | viability at 30 µM (HL60) | viability at 30 µM (MCF-7) | viability at 30 µM (MDA-MB-231) | viability at 30 µM (MEC-1) | viability at 30 µM (MIA-PA-CA) | viability at 30 µM (Maver1) | viability at 30 µM (Mino) | viability at 30 µM (OVCAR4) | viability at 30 µM (PANC1) | viability at 30 µM (PC3) | viability at 30 µM (SUDHL) | viability at 30 µM (WSU-NHL) | viability at 30 µM (primary CLL) | viability at 30 µM (K562) | viability at 30 µM (Nalm16) | also measured
1 | Fc1ccc(-c2ncn(Cc3ccccc3)c2-c2ccnc3[nH]ccc23)cc1Cl [Preparative Example 140, 4-(1-benzyl-4-(3-chloro-4-fluorophenyl)-1H-imidazol-5-yl)-1H-pyrrolo[2,3-b]pyridine] | 1% | 0% | 80% | 44% | 22% | 78% | 43% | 86% | 67% | 29% | 7% | 3% | 87% | 77% | 67% | 11% | 56% | 60% | – | – | –
2 | Cc1nc(-c2ccc(F)cc2)c(-c2ccnc3[nH]ccc23)n1C1CCCCC1 [Preparative Example 61, 4-(1-cyclohexyl-4-(4-fluorophenyl)-2-methyl-1H-imidazol-5-yl)-1H-pyrrolo[2,3-b]pyridine] | 35% | 2% | 20% | 22% | 60% | 63% | 39% | 46% | 41% | 58% | 52% | 28% | 77% | 81% | 71% | 24% | – | 70% | 80% | 6% | –
3 | Cc1cc2c(-c3c(-c4ccc(F)cc4)ncn3C3CCCCC3)ccnc2[nH]1 [Preparative Example 39, 4-(1-cyclohexyl-4-(4-fluorophenyl)-1H-imidazol-5-yl)-2-methyl-1H-pyrrolo[2,3-b]pyridine] | 10% | 2% | 16% | 10% | 55% | 62% | – | 71% | 22% | 56% | 2% | 26% | 42% | 44% | 29% | 24% | 88% | 48% | 73% | 6% | –
4 | Fc1ccc(-c2ncn(C3CCCCC3)c2-c2ccnc3[nH]ccc23)cc1 [Preparative Example 3, 4-(1-cyclohexyl-4-(4-fluorophenyl)-1H-imidazol-5-yl)-1H-pyrrolo[2,3-b]pyridine] | 30% | 27% | 64% | 17% | 47% | 72% | 53% | 69% | 43% | 61% | 54% | 38% | 73% | 65% | – | 18% | – | 69% | 81% | 32% | viability at 6 h, 30 µM [3]: 80.9%; cleaved PARP, marker of apoptosis (FIG. 2) (primary CLL cells [4]): Increased PARP cleavage; also recorded: increase of cleaved PARP; Viability - mean % of control, Primary CLL (primary CLL cells [5]; 30 μM, 6 hours, N = 8): 37.3% (N = 8); selective toxicity towards cancer cells vs nonmalignant controls (FIG. 4, Table 3) (primary CLL cells [5]; 30 μM, 6 hours): significantly higher cytotoxic effects towards cancer cells than nonmalignant controls; selective toxicity towards cancer cells vs nonmalignant controls (FIG. 4, Table 3) (primary CLL cells [5]; 30 μM, 6 hours, listed as prep. example 3): selective towards cancer cells; dose-dependent cytotoxic effect / apoptosis of primary CLL cells (FIG. 1) (primary CLL cells [5]; 6 h, indicated doses of inhibitors, listed as preparatory example 3): induced dose-dependently
5 | Fc1ccc(-c2nc(I)n(C3CCCCC3)c2-c2ccnc3[nH]ccc23)cc1 [Preparative Example 95, 4-(1-cyclohexyl-4-(4-fluorophenyl)-2-iodo-1H-imidazol-5-yl)-1H-pyrrolo[2,3-b]pyridine] | 2% | 1% | 16% | 0% | 5% | 2% | 1% | 2% | 0% | 1% | 1% | 0% | 7% | 10% | 1% | 0% | 0% | 2% | 1% | – | –
6 | C=CS(=O)(=O)N[C@H]1CC[C@@H](n2cnc(-c3ccc(F)cc3)c2-c2ccnc3[nH]ccc23)CC1 [Preparative Example 97] | 18% | 1% | 17% | 11% | 39% | 68% | 28% | 53% | 1% | 23% | 1% | 0% | 78% | 50% | 74% | 68% | 2% | 51% | – | – | –
